Consider 17 compounds from US20230339952A1, “MACROCYCLIC HETEROCYCLES AND USES THEREOF” (Kumquat Biosciences Inc., priority 2022, published 2023).

Where two headings read alike, the source gives them in different places.

Broadly, the IC50 is the concentration needed to halve the response being measured.

The target of one experiment is SOS1 (Homo sapiens (Human), UniProt Q07889). The experiment in a line: Ras-SOS interaction assay (HTRF), K-Ras G13D utilized. To be noted: K-Ras G13D. The format is binding. An excerpt: For example, the equilibrium interaction of human SOS1 (hSOS1) with human wildtype Kras or K-Ras mutant (e.g., hK-Ras G12C mutant, or hK-Ras G12C) can be assessed as a proxy or an indication for a subject compound's ability to inhibit SOS. Detection of such interaction is achieved by measuring homogenous time-resolved fluorescence resonance energy transfer (HTRF) from (i) a fluorescence resonance energy transfer (FRET) donor (e.g., antiGST-Europium) that is bound to GST-tagged K-Ras G12C to (ii) a FRET acceptor (e.g., anti-6His-XL665) bound to a His-tagged hSOS1.
A Ras working solution is prepared in assay buffer containing typically 10 nM of the protein construct (e.g., GST-tagged hK-Ras G12C) and 2 nM of the FRET donor (e.g., antiGST-Eu(K) from Cisbio, France). A SOS1 working solution is prepared in assay buffer containing typically 10 nM of the protein construct (e.g., His-hSOS1) and 10 nM of the FRET acceptor (e.g., anti-6His-XL665 from Cisbio, France). An inhibitor control solution is prepared in assay buffer containing 10 nM of the FRET acceptor without the SOS1 protein.
A fixed reaction mixture with or without test compound is transferred into a 384-well plate. Ras working solution is added to all wells of the test plate. SOS1 working solution is added to all wells except for those that are subsequently filled with the inhibitor control solution. […] The ratiometric data (i.e., emission 2 divided by emission 1) is used to calculate IC50 values against SOS1 using GraphPad Prism (GraphPad software).

Experiment [1] deals with NCI-H1975 (ATCC CRL-5908) cell line comprising an EGFR T790M L858R double mutation. In words: EGFR-SOS cellular inhibition assay (CellTiter-Glo cell proliferation). It counts as cell-based. To be noted: Homo sapiens.
Procedure: A CellTiter-Glo (CTG) luminescent based assay (Promega) is used to assess growth of the cells, as a measurement of the ability of the compounds herein to inhibit EGFR signaling in the cells. […] The day after plating, cells are treated with a dilution series (e.g., a 9 point 3-fold dilution series) of the compounds herein (e.g., approximately 125 μL final volume per well).
[2] abbreviates: 120 h, NCI-H1975 cell proliferation, approximately 5 days, read-out: H1975 IC50.

SOS1, sequence (Q07889 564-1049): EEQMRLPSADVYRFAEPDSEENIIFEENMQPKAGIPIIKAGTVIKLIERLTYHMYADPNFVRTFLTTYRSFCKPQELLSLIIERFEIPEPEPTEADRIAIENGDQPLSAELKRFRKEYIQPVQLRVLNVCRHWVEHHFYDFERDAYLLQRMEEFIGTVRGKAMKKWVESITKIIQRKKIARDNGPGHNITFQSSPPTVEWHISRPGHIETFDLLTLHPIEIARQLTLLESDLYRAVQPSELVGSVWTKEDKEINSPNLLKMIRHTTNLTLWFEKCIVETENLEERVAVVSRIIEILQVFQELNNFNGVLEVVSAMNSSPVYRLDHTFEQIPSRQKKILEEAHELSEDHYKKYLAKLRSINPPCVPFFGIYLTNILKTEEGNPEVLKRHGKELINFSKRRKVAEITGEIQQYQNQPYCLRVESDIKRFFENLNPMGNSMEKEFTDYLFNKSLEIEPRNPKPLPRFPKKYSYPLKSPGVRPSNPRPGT

For the compound `C[C@H]1Nc2ncnc3c2cc(C2CCS(=O)(=O)CC2)c(=O)n3CCCCCCN2CCC(CC2)CC(F)(F)c2cccc1c2F` [Compound 156, (3R)-1^6-(1,1-dioxidothiomorpholino)-4^2,5,5-trifluoro-3-methyl-1^7,1^8-dihydro-2-aza-1(4,8)-pyrido[2,3-d]pyrimidina-7(4,1)-piperidina-4(1,3)-benzenacyclotridecaphan-1^7-one], the IC50 at SOS1 (read-out: SOS1 IC50) is < 100 nM; in experiment [1] (setting [2]), < 1000 nM.
Turning to `C[C@H]1Nc2ncnc3c2cc(C2(C#N)CC2)c(=O)n3CCCCCC/C=C/CN2CCC(CC2)C(F)(F)c2cccc1c2` [Compound 131, 1-((4R,E)-2,2-difluoro-4-methyl-6^7-oxo-6^7,6^8-dihydro-5-aza-6(4,8)-pyrido[2,3-d]pyrimidina-1(4,1)-piperidina-3(1,3)-benzenacyclopentadecaphan-13-en-6^6-yl)cyclopropane-1-carbonitrile], the IC50 was < 100 nM at SOS1 (read-out: SOS1 IC50) and < 1000 nM in experiment [1] (setting [2]).
`C[C@H]1Nc2ncnc3c2cc(N2CCN(C)CC2)c(=O)n3CCCCCCCN2CCC(CC2)C(F)(F)c2cccc1c2F` [Compound 57, (4R)-3^2,2,2-trifluoro-4-methyl-6^6-(4-methylpiperazin-1-yl)-6^7,6^8-dihydro-5-aza-6(4,8)-pyrido[2,3-d]pyrimidina-1(4,1)-piperidina-3(1,3)-benzenacyclotridecaphan-6^7-one]: the IC50 is < 100 nM on SOS1 (read-out: SOS1 IC50) and < 1000 nM in experiment [1] (setting [2]).
Regarding `C[C@H]1Nc2ncnc3c2cc(C2(C#N)CC2)c(=O)n3CCCC/C=C\CN2CCC(CC2)C(F)(F)c2cccc1c2` [Compound 159, 1-((4R,Z)-2,2-difluoro-4-methyl-6^7-oxo-6^7,6^8-dihydro-5-aza-6(4,8)-pyrido[2,3-d]pyrimidina-1(4,1)-piperidina-3(1,3)-benzenacyclotridecaphan-11-en-6^6-yl)cyclopropane-1-carbonitrile], the IC50 at SOS1 (read-out: IC50 value against SOS1) was < 50 nM; at SOS1 (read-out: SOS1 IC50) it was < 100 nM; in experiment [1] (setting [2]), < 1000 nM; in experiment [1] (NCI-H1975, EGFR T790M L858R double mutation, read-out: IC50 in inhibiting growth of NCI-H1975 cell line) it was < 500 nM.
As to `C[C@H]1Nc2ncnc3c2cc(C2(C#N)CC2)c(=O)n3CCCCNC(=O)CN2CCC(CC2)C(F)(F)c2cccc1c2` [Compound 124, 1-((4R)-2,2-difluoro-4-methyl-6^7,12-dioxo-6^7,6^8-dihydro-5,11-diaza-6(4,8)-pyrido[2,3-d]pyrimidina-1(4,1)-piperidina-3(1,3)-benzenacyclotridecaphane-6^6-yl)cyclopropane-1-carbonitrile], the figures for the IC50 (on SOS1 (read-out: SOS1 IC50); in experiment [1] (setting [2])) were < 100 nM and < 1000 nM, respectively.
The like results for `C[C@H]1Nc2ncnc3c2cc(C2(C#N)CC2)c(=O)n3CCCCCC(O)CN2CCC(CC2)C(F)(F)c2cccc1c2` (stereo partly drawn) [Compound 58, 1-((4R)-2,2-difluoro-12-hydroxy-4-methyl-6^7-oxo-6^7,6^8-dihydro-5-aza-6(4,8)-pyrido[2,3-d]pyrimidina-1(4,1)-piperidina-3(1,3)-benzenacyclotridecaphane-6^6-yl)cyclopropane-1-carbonitrile] were, in that order, < 100 nM and < 1000 nM.
On to `C[C@H]1Nc2ncnc3c2cc(N2CCN(C4COC4)CC2)c(=O)n3CCCCCCCN2CCC(CC2)C(F)(F)c2cccc1c2F` [Compound 179, (4R)-3^2,2,2-trifluoro-4-methyl-6^6-(4-(oxetan-3-yl)piperazin-1-yl)-6^7,6^8-dihydro-5-aza-6(4,8)-pyrido[2,3-d]pyrimidina-1(4,1)-piperidina-3(1,3)-benzenacyclo-tridecaphan-6^7-one], for which the half-maximal inhibitory concentration (IC50) at SOS1 (read-out: SOS1 IC50) was < 100 nM; in experiment [1] (setting [2]), < 1000 nM.
In the same order, the values of `C[C@H]1Nc2ncnc3c2cc(C2(C#N)CC2)c(=O)n3CCCNC(=O)CCN2CCC(CC2)C(F)(F)c2cccc1c2F` [Compound 11, 1-((4R)-3^2,2,2-trifluoro-4-methyl-6^7,11-dioxo-6^7,6^8-dihydro-5,10-diaza-6(4,8)-pyrido[2,3-d]pyrimidina-1(4,1)-piperidina-3(1,3)-benzenacyclotridecaphane-6^6-yl)cyclopropane-1-carbonitrile] are < 100 nM and < 1000 nM.
Regarding `Cc1nnc2c3cc(N4CCOCC4)nc(c13)OCCCCCCN1CCC(CC1)C(F)(F)c1cccc(c1)[C@@H](C)N2` [Compound 141, (R)-2,2-difluoro-6^4,4-dimethyl-6^7-morpholino-7-oxa-5-aza-6(1,5)-pyrido[3,4-d]pyridazina-1(4,1)-piperidina-3(1,3)-benzenacyclotridecaphane], the IC50 on SOS1 (read-out: SOS1 IC50) was < 100 nM; in experiment [1] (setting [2]), < 1000 nM.
The like results for `CC(C)N1CCC(c2cc3c4ncnc3n(c2=O)CCOCCCCN2CCC(CC2)CC(F)(F)c2cccc(c2)[C@@H](C)N4)CC1` [Compound 122, (3R)-5,5-difluoro-1^6-(1-isopropylpiperidin-4-yl)-3-methyl-1^7,1^8-dihydro-12-oxa-2-aza-1(4,8)-pyrido[2,3-d]pyrimidina-7(4,1)-piperidina-4(1,3)-benzenacyclotetradecaphan-1^7-one] were, in that order, < 100 nM and < 1000 nM.
For `CC1C/C=C\CCCN2CCC(CC2)C(F)(F)c2cccc(c2F)[C@@H](C)Nc2ncnc3c2cc(C2(C#N)CC2)c(=O)n31` (stereo partly drawn) [Compound 97, 1-((4R,Z)-3^2,2,2-trifluoro-4,7-dimethyl-6^7-oxo-6^7,6^8-dihydro-5-aza-6(4,8)-pyrido[2,3-d]pyrimidina-1(4,1)-piperidina-3(1,3)-benzenacyclotridecaphan-9-en-6^6-yl)cyclopropane-1-carbonitrile], the IC50 was < 100 nM at SOS1 (read-out: SOS1 IC50) and < 1000 nM in experiment [1] (setting [2]).
As for `C[C@H]1Nc2ncnc3c2cc(C2CCS(=O)(=O)CC2)c(=O)n3CCCCn2cc(nn2)CN2CCC(CC2)C(F)(F)c2cccc1c2F` [Compound 108, (6R,Z)-8^6-(1,1-dioxidotetrahydro-2H-thiopyran-4-yl)-5^2,4,4-trifluoro-6-methyl-8^7,8^8-dihydro-11H-7-aza-8(4,8)-pyrido[2,3-d]pyrimidina-3(1,4)-piperidina-1(4,1)-triazola-5(1,3)-benzenacyclododecaphan-8^7-one], the IC50 was < 100 nM on SOS1 (read-out: SOS1 IC50) and < 1000 nM in experiment [1] (setting [2]).
On to `C[C@H]1Nc2ncnc3c2cc(C2CCS(=O)(=O)CC2)c(=O)n3CCCCCC(C)(C)CN2CCC(CC2)C(F)(F)c2cccc1c2` [Compound 55, (4R)-6^6-(1,1-dioxidotetrahydro-2H-thiopyran-4-yl)-2,2-difluoro-4,12,12-trimethyl-6^7,6^8-dihydro-5-aza-6(4,8)-pyrido[2,3-d]pyrimidina-1(4,1)-piperidina-3(1,3)-benzenacyclotridecaphan-6^7-one], for which the IC50 is < 100 nM on SOS1 (read-out: SOS1 IC50) and < 1000 nM in experiment [1] (setting [2]).
For the compound `C[C@@H]1C(=O)NCCCCn2c(=O)c(C3(C#N)CC3)cc3c(ncnc32)N[C@H](C)c2cccc(c2)C(F)(F)C2CCN1CC2` [Compound 36, 1-((4R,13R)-2,2-difluoro-4,13-dimethyl-6^7,12-dioxo-6^7,6^8-dihydro-5,11-diaza-6(4,8)-pyrido[2,3-d]pyrimidina-1(4,1)-piperidina-3(1,3)-benzenacyclotridecaphane-6^6-yl)cyclopropane-1-carbonitrile], the figures for the IC50 (at SOS1 (read-out: SOS1 IC50); in experiment [1] (setting [2])) were < 100 nM and < 1000 nM, respectively.
In the case of `C[C@H]1Nc2ncnc3c2cc(C2(C#N)CC2)c(=O)n3CC(=O)NCCCCN2CCC(CC2)C(F)(F)c2cccc1c2` [Compound 132, 1-((4R)-2,2-difluoro-4-methyl-6^7,8-dioxo-6^7,6^8-dihydro-5,9-diaza-6(4,8)-pyrido[2,3-d]pyrimidina-1(4,1)-piperidina-3(1,3)-benzenacyclotridecaphane-6^6-yl)cyclopropane-1-carbonitrile], the IC50 was < 100 nM at SOS1 (read-out: SOS1 IC50) and < 1000 nM in experiment [1] (setting [2]).
In the case of `CC(C)N1CCN(c2cc3c4ncnc3n(c2=O)CCCOCCCCN2CCC(CC2)C(F)(F)c2cccc(c2F)[C@@H](C)N4)CC1` [Compound 77, (4R)-3^2,2,2-trifluoro-6^6-(4-isopropylpiperazin-1-yl)-4-methyl-6^7,6^8-dihydro-10-oxa-5-aza-6(4,8)-pyrido[2,3-d]pyrimidina-1(4,1)-piperidina-3(1,3)-benzenacyclotetradecaphan-6^7-one], the IC50 was < 100 nM on SOS1 (read-out: SOS1 IC50) and < 1000 nM in experiment [1] (setting [2]).
In the same order, the values of `C[C@H]1Nc2ncnc3c2cc(C2(C#N)CC2)c(=O)n3CCCCNC(=O)CN2CCC(CC2)C(F)(F)c2cccc1c2F` [Compound 147, 1-((4R)-3^2,2,2-trifluoro-4-methyl-6^7,12-dioxo-6^7,6^8-dihydro-5,11-diaza-6(4,8)-pyrido[2,3-d]pyrimidina-1(4,1)-piperidina-3(1,3)-benzenacyclotridecaphane-6^6-yl)cyclopropane-1-carbonitrile] are < 100 nM and < 1000 nM.
